Reference: patent publication US6156316A, “Oncogene fusion protein peptide vaccines” (Sloan-Kettering Institute for Cancer Research, priority 1995, dated 2000)
No end group written: not given here.

Molecular target: T1, HLA A3.2 (Homo sapiens, UniProt P04439)
T1 construct: endogenous in cells
T1 sequence (P61769 21-119): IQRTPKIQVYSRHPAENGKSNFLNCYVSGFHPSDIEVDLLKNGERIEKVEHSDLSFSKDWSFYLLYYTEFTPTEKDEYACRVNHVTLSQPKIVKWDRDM
T1 sequence (P04439 25-365): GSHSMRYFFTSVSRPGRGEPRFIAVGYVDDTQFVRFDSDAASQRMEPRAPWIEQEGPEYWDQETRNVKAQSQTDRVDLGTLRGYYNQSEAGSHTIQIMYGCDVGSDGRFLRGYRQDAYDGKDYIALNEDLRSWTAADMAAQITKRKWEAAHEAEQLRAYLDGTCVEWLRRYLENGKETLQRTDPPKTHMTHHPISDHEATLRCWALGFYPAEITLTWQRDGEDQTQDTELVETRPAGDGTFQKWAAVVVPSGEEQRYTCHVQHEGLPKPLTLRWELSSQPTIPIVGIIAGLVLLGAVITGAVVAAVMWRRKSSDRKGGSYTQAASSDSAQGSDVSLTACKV
Experiment: biochemical
Format: binding
Conditions: not given
From the text: (§1) Purification of HLA class I molecules.
KQSSKALQR showed an IC50 of 43 nM. For LTINKEEALQR, the IC50 was > 30000 nM. For QSSKALQR, the IC50 was > 30000 nM.

Same assay, conditions: AFFINITY (nM) A3.2, Table 1, CML peptides; 50% inhibition of standard peptide binding
Work on GFKQSSKALQR yielded an IC50 of 810 nM. In the case of SATGFKQSSK, the IC50 is reported as 5450 nM. For TGFKQSSK, the IC50 was > 30000 nM. ATGFKQSSK gave an IC50 of 300 nM. Compound HSATGFKQSSK has an IC50 of 400 nM. Work on FKQSSKALQR yielded an IC50 of 545 nM. With TINKEEALQR the IC50 was > 30000 nM.

Same assay, conditions: concentration for 50% inhibition, HLA A3.2, text b187
Compound ATGFKQSSK has an IC50 of 100 to 500 nM. Work on HSATGFKQSSK yielded an IC50 of 400 nM.

Molecular target: T2, HLA A2.1 (Homo sapiens, UniProt P04439, D140Y/D185E/D98H/E176V/E277Q/G131W/G231S/I119V/I121R/I166T/I218V/L300P/L318F/N151K/N90K/P208A/P217A/Q86G/Q94H/R138H/R169H/T345S)
T2 construct: endogenous in cells
Experiment: biochemical
Format: binding
Conditions: not given
From the text: as §1
In the case of ATGFKQSSKAL [ATGFKQSSKAL], the IC50 is reported as > 30 µM. In the case of TINKEEAL [TINKEEAL], the IC50 is reported as > 30 µM. In the case of HVASGAGEAAI, the IC50 is reported as > 50 µM. In the case of VASGAGEAAI, the IC50 is reported as > 50 µM. With `CC[C@H](C)[C@H](NC(=O)[C@@H](NC(=O)[C@@H](N)CC(C)C)[C@@H](C)O)C(=O)N[C@@H](CC(N)=O)C(=O)N[C@@H](CCCCN)C(=O)N[C@@H](CCC(=O)O)C(=O)N[C@@H](CCC(=O)O)C(=O)N[C@@H](C)C(=O)N[C@@H](CC(C)C)C(=O)O` [LTINKEEAL] the IC50 was > 30 µM. In the case of CITQGKAI, the IC50 is reported as > 50 µM. For DLSSCITQGKA, the IC50 was > 50 µM. With PLTINKEEAL [PLTINKEEAL] the IC50 was > 30 µM. In the case of PLTINKEEA, the IC50 is reported as > 30 µM.

System: HIV-1 recombinant vaccine
Experiment: not given
Conditions: Rhesus monkeys; cited from earlier work
In the case of QS-21, the “augmenting the immunogenicity of an HIV-1 recombinant vaccine” value is listed as “highly effective”.

Molecular target: HLA B7 (Homo sapiens, UniProt P01889)
Sequence (P01889 25-362): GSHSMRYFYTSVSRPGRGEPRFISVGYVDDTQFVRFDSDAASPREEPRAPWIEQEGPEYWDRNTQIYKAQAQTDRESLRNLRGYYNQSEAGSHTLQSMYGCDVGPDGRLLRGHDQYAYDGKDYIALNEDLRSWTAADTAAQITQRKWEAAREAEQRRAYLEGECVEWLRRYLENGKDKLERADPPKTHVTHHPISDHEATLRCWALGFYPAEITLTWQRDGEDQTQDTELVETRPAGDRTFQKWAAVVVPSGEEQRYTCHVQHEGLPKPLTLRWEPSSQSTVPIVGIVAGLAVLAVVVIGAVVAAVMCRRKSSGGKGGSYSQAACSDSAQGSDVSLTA
Sequence (P61769 21-119, further chain): as the sequence (P61769 21-119) above
Experiment: biochemical
Conditions: not given
In the case of IPLTINKEEAL [IPLTINKEEAL], the IC50 is reported as > 30 µM.

System: FeLV subunit vaccine
Experiment: not given
Conditions: cats; cited from earlier work
For QS-21, the “augmenting the immunogenicity of an FeLV subunit vaccine” value is listed as “highly effective”.
